Measured values reported in US20140066449A1, “DIPYRIDINIUM DERIVATIVES” (SABREPHARM LIMITED, priority 2011, published 2014).
Read-outs that look alike come from different tables or passages of the source.

Key:
dog = details: cited from earlier work
rat = details: oral; cited from earlier work
[1] = test system: Modified mouse fibroblasts Nrf2−/−; details: cited from earlier work
[2] = test system: cells (depending on the cell studied); details: read-out: LC 50, in vitro; cited from earlier work
HEK293 cells [3] = experiment: ROS production in intact HEK293 cells (DCFDA, flow cytometry); format: cell-based, human; details: 5 mM, 48 hours, absence and presence of pluronic acid 0.1%
Experimental: The ability of test compounds to impact ROS production in intact HEK293 cells after 48 hours exposure was assessed.
HEK293 cells were stained with 2′,7′-dichlorofluorescein diacetate (DCFDA; 10 μM, 30 minutes, 37° C.). The cells were then washed and resuspended to 250×10^5/ml. The stained HEK293 cells were seeded into a 24 well plate ([…]) in DMEM supplemented with 10% FCS, antibiotics and L-glutamine. Drugs at indicated concentrations were added followed by incubation for 48 hours at 37° C. before HEK293 cells were washed, trypsinised and resuspended in PBS prior to analysis for ROS production by flow cytometry.

HEK293 cells [4] = experiment: Cell death assay in HEK293 cells (PI staining, flow cytometry); format: cell-based, human; details: HEK293, 5 mM, 48 hours, in the presence of pluronic acid 0.1%
Experimental: The ability of test compounds to impact cell death in HEK293 cells after 48 hours exposure was assessed.
HEK293 cells were seeded into a 24 well plate ([…]) in DMEM supplemented with 10% FCS, antibiotics and L-glutamine. Drugs at indicated concentrations were added followed by incubation for 48 hours at 37° C. before HEK293 cells were washed, trypsinised and resuspended in PBS prior to PI staining (0.1 μg/ml) before analysis of PI+ ve cells by flow cytometry.

[5] = test system: H460 non-small cell lung adenocarcinoma; experiment: MTT in vitro cytotoxicity, H460; format: cell-based; details: Homo sapiens, NCI-H460, 240 h, H460, 10 day exposure
Experimental: (§1) All were stored in the dark at 4° C. An accurately weighed amount of each compound was dissolved in DMSO and Hank's Balanced Salt Solution (Sigma) according to Table 2 below:
(§2) Further dilutions were made in complete RPMI1640 cell culture medium (RPMI1640 cell culture medium supplemented with 10% foetal bovine serum, 1 mM L-glutamine, and 2 mM sodium pyruvate (all from Sigma)).
(§3) H460 non-small cell lung adenocarcinoma, HT-29 colon adenocarcinoma and MCF-7 breast adenocarcinoma (ECACC, Salisbury, Wiltshire) were used for analysis. Cells were cultured in complete RPMI1640 cell culture medium, and maintained as monolayer cultures at 37° C. in a humidified 5% CO2 environment.
(§4) Tumour cell growth inhibition was assessed using the MTT assay with a standard 96 hour plus an extended 10 day incubation. For the 96 hour assay 1×10^4 cells were inoculated into each well of a 96-well plate and incubated overnight at 37° C. in a humidified atmosphere containing 5% CO2 to give time to adhere to the wells and form a monolayer. For the 10 day incubation, 1×102 (H460 and HT-29) and 1×103 (MCF-7) cells were inoculated. The next day, culture medium was removed from each well and replaced with cell culture media for the untreated control, or media containing compound, and the plates then incubated for a further 96 hours or 10 days. […] After 96 hours or 10 days culture medium was removed and 200 μL of 0.5 mgmL-1 MTT solution (Sigma) in complete medium added to each well. Following a further 4 hours incubation, the solution was removed from each well and 150 μL of DMSO added to solubilise the formazan crystals resulting from MTT conversion. Absorbance values for the resulting solutions were read at 550 nm on a Multiskan Ex microplate reader (Thermo Fisher, Loughborough, UK) and cell survival calculated as the absorbance of treated cells divided by the control. Results are expressed in terms of IC50 values (i.e. concentration of compound required to kill 50% of cells), which were determined manually in Microsoft Excel from plots of concentration versus percentage cell survival, and all experiments were performed in triplicate.

A2780 [ovarian] = experiment: Combination with cisplatin, A2780; format: cell-based
[6] = test system: human mitochondria isolated from HEK293 cells; experiment: ROS production in isolated mitochondria (DCFDA); format: biochemical; details: isolated HEK293 mitochondria, 100 μM, 120 mins
Experimental: The ability of test compounds to impact ROS production in isolated mitochondria after 120 mins exposure was assessed.
Mitochondria were isolated from harvested human embryonic kidney (HEK293) cells (20×10^6) using a commercial kit (Thermo Scientific) before re-suspension in PBS to a final volume of 800 μL. […] Independent experiments (each assessing the impact of all four compounds along with a positive [AAPH; 5.0 mM] and vehicle control) were repeated three times.

[7] = test system: A2780/cis [cisplatin ovarian resistant line]; experiment: Combination with cisplatin, A2780/cis; format: cell-based
[8] = test system: MCF-7 breast adenocarcinoma; experiment: MTT in vitro cytotoxicity, MCF-7; format: cell-based, human; details: Homo sapiens, MCF7, 240 h, MCF-7, 10 day exposure
Experimental: as §1, §2, §3, §4

MCF7 [Breast] = experiment: Combination with cisplatin, MCF-7; format: cell-based, human
M 14 [melanoma] = experiment: Combination with cisplatin, M14; format: cell-based
[9] = Redox potential study, square wave voltammetry; format: physicochemical; details: 0.1 mol dm-3 LiNTf2, 20° C., first scan
Experimental: BioAnalytical Systems CV50W potentiostat (from BAS Inc., USA)
Square wave voltammetry (4 mV step, 25 mV pulse, 10 Hz SW frequency)
3 mm diameter glassy carbon working electrode (from BAS)
3 mm diameter glassy carbon counter electrode (from BAS)
Saturated calomel reference electrode (SCE, from Sycopel Scientific Ltd., UK)
0.1 mol dm-3 lithium bis(trifluoromethanesulphonyl)imide ((LiNTf2)CAS 90076-65-6, from 3M)
Voltammograms were recorded from 0.5 V to −1.2 V in deoxygenated solutions of the Compounds.

[10] = test system: HT-29 colon adenocarcinoma; experiment: MTT in vitro cytotoxicity, HT-29; format: cell-based; details: Homo sapiens, 240 h, HT-29, 10 day exposure
Experimental: as §1, §2, §3, §4

[11] = highest concentration 30 μM, read-out: IC50 Run 1
[12] = highest concentration 100 μM, read-out: IC50 Run 2
[13] = highest concentration 100 μM, read-out: IC50 Run 3
[14] = mean of runs, read-out: IC50 Mean
[15] = compound 1 μM + cisplatin 10 μM
[16] = compound 3 μM + cisplatin 10 μM
[17] = compound 10 μM + cisplatin 1 μM
[18] = compound 10 μM + cisplatin 3 μM
[19] = compound 10 μM + cisplatin 10 μM

For `COc1cccc2c1C(=O)c1c(O)c3c(c(O)c1C2=O)C[C@@](O)(C(=O)CO)C[C@@H]3O[C@H]1C[C@H](N)[C@H](O)[C@H](C)O1` [Doxorubicin], the LD50 dog (dog; oral) is listed as 2.0 mg/kg and the LD50 rat (rat) is listed as 12.5 mg/kg.
In the case of `CN(Cc1cnc2nc(N)nc(N)c2n1)c1ccc(C(=O)N[C@@H](CCC(=O)O)C(=O)O)cc1` [Methotrexate], the LD50 dog (dog; oral) is given as 120 mg/kg and the LD50 rat (rat) is given as 180 to 320 mg/kg.
For `c1cc[n+]2c(c1)-c1cccc[n+]1CC2` [Diquat], the LD50 dog (dog; in vivo, po) is listed as 100 to 200 mg/kg, the “sensitivity to diquat compared to normal unmodified [wildtype] cells” value [1] is listed as “approximately a fourfold increase in sensitivity” and the LD50 rat (rat) is listed as 231 mg/kg. For the same compound, the CC50 [2] was 40 to 180 µM.
For `CC(C)(N=NC(C)(C)C(=N)N)C(=N)N.Cl.Cl` [AAPH], the ROS production (HEK293 cells [3]) was “induced ROS production in the absence and presence of pluronic acid” and the “cell death (PI staining)” value (HEK293 cells [4]) was “inducedcell death in HEK293 cells in 2/3 experiments”.
Work on `OCc1ccc2[n+](c1)CC[n+]1ccccc1-2` [Compound B, 3-(hydroxymethyl)-6,7-dihydrodipyrido[1,2-a:2′,1′-c]pyrazine-5,8-diium bistrifluoromethanesulfonate] yielded an IC50 [5, 11] of 4.7 µM, an IC50 [5, 12] of 4.7 µM and an IC50 [5, 13] of 5 µM. For the same compound, the IC50 [5, 14] was 4.8 µM, the “% cell survival” value (A2780 [ovarian]; compound 1 μM + cisplatin 1 μM) was 55.2% and the “% cell survival” value (A2780 [ovarian]; compound 1 μM + cisplatin 3 μM) was 20.3%. For the same compound, the “% cell survival” value (A2780 [ovarian]; [15]) was 5.5%, the “% cell survival” value (A2780 [ovarian]; compound 1 μM, cisplatin 0 μM) was 88.5% and the “% cell survival” value (A2780 [ovarian]; compound 3 μM + cisplatin 1 μM) was 46.3%. For the same compound, the “% cell survival” value (A2780 [ovarian]; compound 3 μM + cisplatin 3 μM) was 18.3%, the “% cell survival” value (A2780 [ovarian]; [16]) was 5.4% and the “% cell survival” value (A2780 [ovarian]; compound 3 μM, cisplatin 0 μM) was 59%. The “% cell survival” value (A2780 [ovarian]; [17]) was 20.4%, the “% cell survival” value (A2780 [ovarian]; [18]) was 11.7% and the “% cell survival” value (A2780 [ovarian]; [19]) was 3.9%. The “% cell survival” value (A2780 [ovarian]; compound 10 μM, cisplatin 0 μM) was 35.7%, the “rank order of efficacy (ROS production)” value [6] was “F>G>B>A” and the “ROS production relative to vehicle treatment” value ([6]; room temperature) was “a more modest increase”. For the same compound, the “% cell survival” value [7, 15] was 32.1%, the “% cell survival” value ([7]; compound 1 μM + cisplatin 30 μM) was 6.5% and the “% cell survival” value ([7]; compound 1 μM + cisplatin 100 μM) was 0%. For the same compound, the “% cell survival” value ([7]; compound 1 μM, cisplatin 0 μM) was 74.4%, the “% cell survival” value [7, 16] was 24.2% and the “% cell survival” value ([7]; compound 3 μM + cisplatin 30 μM) was 8.1%. The “% cell survival” value ([7]; compound 3 μM + cisplatin 100 μM) was 3.3%, the “% cell survival” value ([7]; compound 3 μM, cisplatin 0 μM) was 44.7% and the “% cell survival” value [7, 19] was 9%. For the same compound, the “% cell survival” value ([7]; compound 10 μM + cisplatin 30 μM) was 5%, the “% cell survival” value ([7]; compound 10 μM + cisplatin 100 μM) was 2.1% and the “% cell survival” value ([7]; compound 10 μM, cisplatin 0 μM) was 15.4%. It also gave an IC50 [8, 11] of 2.7 µM, an IC50 [8, 12] of 2.3 µM and an IC50 [8, 13] of 5.9 µM. For the same compound, the IC50 [8, 14] was 3.6 µM, the “% cell survival” value (MCF7 [Breast]; compound 1 μM + cisplatin 0.1 μM) was 87.3% and the “% cell survival” value (MCF7 [Breast]; compound 1 μM + cisplatin 0.3 μM) was 77.9%. For the same compound, the “% cell survival” value (MCF7 [Breast]; compound 1 μM + cisplatin 1 μM) was 72.3%, the “% cell survival” value (MCF7 [Breast]; compound 1 μM, cisplatin 0 μM) was 76.2% and the “% cell survival” value (MCF7 [Breast]; compound 3 μM + cisplatin 0.1 μM) was 81.4%. For the same compound, the “% cell survival” value (MCF7 [Breast]; compound 3 μM + cisplatin 0.3 μM) was 73.2%, the “% cell survival” value (MCF7 [Breast]; compound 3 μM + cisplatin 1 μM) was 74.3% and the “% cell survival” value (MCF7 [Breast]; compound 3 μM, cisplatin 0 μM) was 69.1%. For the same compound, the “% cell survival” value (MCF7 [Breast]; compound 10 μM + cisplatin 0.1 μM) was 63.7%, the “% cell survival” value (MCF7 [Breast]; compound 10 μM + cisplatin 0.3 μM) was 51.7% and the “% cell survival” value (MCF7 [Breast]; [17]) was 46.3%. For the same compound, the “% cell survival” value (MCF7 [Breast]; compound 10 μM, cisplatin 0 μM) was 67.3%, the “% cell survival” value (M 14 [melanoma]; compound 1 μM + cisplatin 1 μM) was 88.4% and the “% cell survival” value (M 14 [melanoma]; compound 1 μM + cisplatin 3 μM) was 83.8%. For the same compound, the “% cell survival” value (M 14 [melanoma]; [15]) was 58.4%, the “% cell survival” value (M 14 [melanoma]; compound 1 μM, cisplatin 0 μM) was 93.2% and the “% cell survival” value (M 14 [melanoma]; compound 3 μM + cisplatin 1 μM) was 78.9%. The “% cell survival” value (M 14 [melanoma]; compound 3 μM + cisplatin 3 μM) was 72%, the “% cell survival” value (M 14 [melanoma]; [16]) was 47.1% and the “% cell survival” value (M 14 [melanoma]; compound 3 μM, cisplatin 0 μM) was 79.7%. The “% cell survival” value (M 14 [melanoma]; [17]) was 55.7%, the “% cell survival” value (M 14 [melanoma]; [18]) was 50.2% and the “% cell survival” value (M 14 [melanoma]; [19]) was 33.4%. For the same compound, the “% cell survival” value (M 14 [melanoma]; compound 10 μM, cisplatin 0 μM) was 59.2%, the “Reduction potential 1” value [9] was −0.460 V vs. SCE and the “Reduction potential 2” value [9] was −0.932 V vs. SCE. The IC50 [10, 11] was 1800 nM, the IC50 [10, 12] was 1200 nM and the IC50 [10, 13] was 1800 nM. It also gave an IC50 [10, 14] of 1600 nM.
